The values that follow come from US20260138961A1, “MODULATORS OF MITOCHONDRIAL DNA REPLICATION” (Pretzel Therapeutics, Inc., priority 2022, published 2026).

Substitutions are numbered along the chain they refer to. Bounds are passed on as bounds.

In one test the target is T1, POLγA:G848S (Homo sapiens, UniProt P54098, G848S).
T1 sequence (P54098 1-1239 G848S): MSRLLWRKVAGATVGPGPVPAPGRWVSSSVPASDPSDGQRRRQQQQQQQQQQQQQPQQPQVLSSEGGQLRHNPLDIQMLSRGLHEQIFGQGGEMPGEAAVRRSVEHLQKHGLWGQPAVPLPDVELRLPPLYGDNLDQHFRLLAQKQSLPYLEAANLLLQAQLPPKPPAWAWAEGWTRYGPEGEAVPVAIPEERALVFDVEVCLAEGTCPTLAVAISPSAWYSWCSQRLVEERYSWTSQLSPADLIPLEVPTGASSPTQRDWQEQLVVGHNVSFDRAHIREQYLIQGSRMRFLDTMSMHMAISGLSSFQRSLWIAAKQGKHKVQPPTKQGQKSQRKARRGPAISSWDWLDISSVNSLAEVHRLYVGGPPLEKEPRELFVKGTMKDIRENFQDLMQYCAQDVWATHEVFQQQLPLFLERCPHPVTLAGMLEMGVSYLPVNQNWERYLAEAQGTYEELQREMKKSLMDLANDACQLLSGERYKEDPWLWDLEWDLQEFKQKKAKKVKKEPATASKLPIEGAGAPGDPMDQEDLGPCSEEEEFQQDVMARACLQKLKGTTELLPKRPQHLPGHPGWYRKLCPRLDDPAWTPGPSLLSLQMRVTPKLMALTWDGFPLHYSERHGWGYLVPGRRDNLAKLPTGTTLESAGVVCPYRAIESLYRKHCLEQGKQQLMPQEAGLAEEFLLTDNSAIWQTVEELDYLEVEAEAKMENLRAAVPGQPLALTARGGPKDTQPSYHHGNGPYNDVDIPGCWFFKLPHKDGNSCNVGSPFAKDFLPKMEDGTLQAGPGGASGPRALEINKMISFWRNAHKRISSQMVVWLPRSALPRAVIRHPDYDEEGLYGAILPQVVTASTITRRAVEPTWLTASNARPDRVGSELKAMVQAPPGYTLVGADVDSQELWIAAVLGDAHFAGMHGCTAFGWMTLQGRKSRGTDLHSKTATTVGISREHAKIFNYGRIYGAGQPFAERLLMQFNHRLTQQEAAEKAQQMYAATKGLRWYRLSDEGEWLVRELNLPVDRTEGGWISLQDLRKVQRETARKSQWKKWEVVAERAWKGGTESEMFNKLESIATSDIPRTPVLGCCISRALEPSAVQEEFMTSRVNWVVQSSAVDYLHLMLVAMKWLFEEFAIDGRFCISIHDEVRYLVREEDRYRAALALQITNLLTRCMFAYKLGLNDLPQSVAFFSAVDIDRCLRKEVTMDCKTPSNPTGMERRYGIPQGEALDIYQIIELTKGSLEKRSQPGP
T1 sequence (Q9UHN1 1-485 partner): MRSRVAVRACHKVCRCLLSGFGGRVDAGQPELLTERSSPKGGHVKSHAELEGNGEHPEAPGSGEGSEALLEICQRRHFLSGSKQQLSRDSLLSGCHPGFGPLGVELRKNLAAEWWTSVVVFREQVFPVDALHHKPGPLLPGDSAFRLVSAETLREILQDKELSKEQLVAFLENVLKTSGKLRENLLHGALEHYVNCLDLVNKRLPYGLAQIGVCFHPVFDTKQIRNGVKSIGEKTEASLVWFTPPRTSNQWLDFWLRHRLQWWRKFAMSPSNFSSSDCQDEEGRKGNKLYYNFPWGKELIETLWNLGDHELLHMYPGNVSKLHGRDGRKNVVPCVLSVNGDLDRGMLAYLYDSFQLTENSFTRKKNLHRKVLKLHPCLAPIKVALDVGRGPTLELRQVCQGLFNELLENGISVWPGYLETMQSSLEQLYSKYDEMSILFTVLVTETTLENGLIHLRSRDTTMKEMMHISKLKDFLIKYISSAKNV
The test is described as follows: DNA polymerization assay, POLγA:G848S mutant. The following applies: stimulation of polymerase activity, primed M13mp18 ssDNA, 37° C. 2 hours; read-out: G848S AC50. The test is classed as biochemical. The protocol: DNA Polymerization Assay to Monitor Effects on Human Wildtype POLγ and Four Disease-Causing Mutant Variants of Human POLγ.
The ability of small molecules to stimulate the polymerase activity of POLγ was analyzed in a quantitative fluorescence SYBR Green I assay with fluorescence intensity (FI) readout.
In the presence of dNTPs, wild type human POLγ and mutant derivatives thereof were incubated with single-stranded, circular M13mp18 ssDNA hybridized to a short DNA oligonucleotide that functions as a primer for initiation of DNA synthesis. POLγ and mutant derivatives thereof will extend the primer and use the M13mp18 molecule as a template to synthesize long stretches of double-stranded DNA. SYBR Green I, which is a double-stranded DNA-binding dye, was used to quantify formation of double-stranded DNA in the reaction. When bound to double-stranded DNA, SYBR Green I fluorescence increases by up to 100-fold.
The assay was performed in the 384-well plate format. Upon addition of compounds, changes in double-stranded DNA synthesis activity can be monitored by following effects on fluorescent intensity.
The reactions also contained the accessory POLγB subunit, and the human mitochondrial single-stranded DNA binding protein (mtSSB).
The DNA template mixture used in the assay contained 0.5 nM primed M13 mp18 ssDNA, 400 nM mtSSB, 0.1 mM Tris-HCl (pH 8.0), 0.1 mM dNTP, 10 mM MgCl2, 0.1 mg/mL BSA, 1 mM TCEP solution, and 0.02% Triton X-100. The DNA template mixture for the wild type protein contained either 100 μM dNTP, 1 μM dNTP, or 0.1 μM dNTP, designated in Table 2 as 100 μM, 1 μM, and 0.1 μM, respectfully.
(§1) Microplates with compounds (0.1 μL in each well) to be tested in the assay were prepared from 10 mM compound stocks in 100% DMSO, and equal amounts of DMSO without any compound were added to positive and negative control wells.
The protein mixture was dispensed (5 μL into each well) into compound plates and incubated at 37° C. for 15 minutes. After incubation, 5 μL of the DNA template mixture was dispensed into each well. The plates were then incubated at 37° C. for 2 hours.
(§2) During incubation, a combined stop buffer and detection reagent solution was prepared. The buffer contained 25 mM EDTA (pH 8.0), 0.02% Triton X-100, and SYBR Green I [Invitrogen] diluted 10,000× (for fluorescent readout). EDTA will stop the enzymatic reaction by chelating magnesium ions.

The target of test [1] is T2, human POLγ 3′-5′ exonuclease activity (Homo sapiens, UniProt P54098).
T2 sequence (P54098 1-1239): T1 sequence (P54098 1-1239 G848S) with S848G
T2 sequence (Q9UHN1 1-485 partner): T1 sequence (Q9UHN1 1-485 partner)
The test can be described thus: Exonuclease inhibition assay with human POLγ (SYBR Green I fluorescence). The following applies: POLγA 1 nM, POLγB 1.3 nM, 5 nM exonuclease template, no dNTPs, 37° C. 2.5 hours. The class given is biochemical. Here is the method:
Exonuclease inhibition assay with human POLγ.
The ability of small molecules to inhibit the 3′-5′ exonuclease activity of POLγ was analyzed in a quantitative fluorescence SYBR Green I assay with fluorescence intensity (FI) readout.
Human POLγ was incubated with a linear, partially double-stranded template containing an 85 base pair double-stranded DNA stretch and a 15 nucleotides long single-stranded 5′-tail (hereafter referred to as the “exonuclease template”). […] When bound to double-stranded DNA, SYBR Green I fluorescence increases by up to 100-fold. In the absence of deoxynucleotide triphosphates (dNTPs), the exonuclease activity of POLγ degrades the 85-mer strand, which leads to the formation of single-stranded DNA (ssDNA) and decreased fluorescent intensity. The assay was performed in a 384-well plate format.
The exonuclease template used was generated by hybridization of a 100 nucleotides long, single-stranded DNA molecule with an inverted dT at the 3′-end (5′-TTTTTTTTTATCCGGGCTCGTTATCTAAGCTGCTCTTGGTAGGCATTGACGTCCATACTGCAAATTCAGCTCTGTGCAGTTAGGCAGGAGTCTACAAGC invT-3′) to an 85 nucleotides long single-stranded DNA molecule (5′-AGCTTGTAGACTCCTGCCTAACTGCACAGAGCTGAATTTGCAGTATGGACGTCAATGCCTACCAGAGCAGCTTAGATAACGAGC-3′), using a Bio-Rad T100 Thermal Cycler. The inverted dT is characterized by a 3′-3′ linkage, which inhibits both degradation of the 3′-5′ exonuclease activity and extension by DNA polymerases.
POLγ is an heterotrimer of one POLγA subunit (harboring exonuclease and DNA polymerase activities) and two accessory POLγB subunits. Proteins used in the exonuclease assay were POLγA (NP_002684) and POLγB (NP_009146).
The protein mixture used in the assays contained POLγA (1 nM), POLγB (1.3 nM, concentration calculated as a dimer), 25 mM Tris-HCl (pH 8.0), 0.1 mg/mL bovine serum albumin, 1 mM Bond-Breaker TCEP solution (pH 7) [Thermo Fisher], 25 mM NaCl, and 0.02% Triton X-100.
The DNA template mixture used in the assay contained 5 nM of the exonuclease template, 25 mM Tris-HCl (pH 8.0), 10 mM MgCl2, 0.1 mg/mL bovine serum albumin, 1 mM Bond-Breaker TCEP solution [Thermo Fisher], and 0.02% Triton X-100.
as §1
The protein mixture containing POLγ was dispensed (5 μL in each well) into compound plates and incubated at 37° C. for 15 minutes to allow compound binding to the POLγ complex. After incubation, 5 μL of the DNA template mixture was dispensed into each well. The plates were incubated at 37° C. for 2.5 hours.
as §2
After the 2.5-hour incubation period, the SYBR Green I solution was added (10 μL) to the screening plates and the plates were incubated at room temperature in the dark for 20 minutes before the fluorescent signal was read between […] on a BMG Pherastar microtiter plate reader.

Consider `Cc1cc(S(=O)(=O)Nc2cccc(C(=O)N[C@@H](C)c3ccccc3)c2)c(C)cc1Cl` [Example 45, (S)-3-((4-chloro-2,5-dimethylphenyl)sulfonamido)-N-(1-phenylethyl)benzamide], for which, on POLγA:G848S, the AC50 is above 100 µM.
In test [1], `Cc1cc(S(=O)(=O)Nc2cccc(-c3nc(C4CC4)cn3C)c2)c(C)cc1Cl` [Example 186, 4-chloro-N-(3-(4-cyclopropyl-1-methyl-1H-imidazol-2-yl)phenyl)-2,5-dimethylbenzenesulfonamide] had a concentration for half-maximal inhibition (IC50) of 7 µM.
